The results in this text go back to ChEMBL document CHEMBL6121004, “Design, synthesis, and biological evaluation of Ponatinib-based N-Phenylpyrimidine-2-amine derivatives as novel fibroblast growth factor receptor 4 (FGFR4) selective inhibitors” (Eur J Med Chem, 2025).

Data set [1] has as its target T1, Fibroblast growth factor receptor 1 (Homo sapiens, UniProt P11362). The note with it: dose 100.0 nM.
Target sequence in this assay (P11362 22-822 limits assumed): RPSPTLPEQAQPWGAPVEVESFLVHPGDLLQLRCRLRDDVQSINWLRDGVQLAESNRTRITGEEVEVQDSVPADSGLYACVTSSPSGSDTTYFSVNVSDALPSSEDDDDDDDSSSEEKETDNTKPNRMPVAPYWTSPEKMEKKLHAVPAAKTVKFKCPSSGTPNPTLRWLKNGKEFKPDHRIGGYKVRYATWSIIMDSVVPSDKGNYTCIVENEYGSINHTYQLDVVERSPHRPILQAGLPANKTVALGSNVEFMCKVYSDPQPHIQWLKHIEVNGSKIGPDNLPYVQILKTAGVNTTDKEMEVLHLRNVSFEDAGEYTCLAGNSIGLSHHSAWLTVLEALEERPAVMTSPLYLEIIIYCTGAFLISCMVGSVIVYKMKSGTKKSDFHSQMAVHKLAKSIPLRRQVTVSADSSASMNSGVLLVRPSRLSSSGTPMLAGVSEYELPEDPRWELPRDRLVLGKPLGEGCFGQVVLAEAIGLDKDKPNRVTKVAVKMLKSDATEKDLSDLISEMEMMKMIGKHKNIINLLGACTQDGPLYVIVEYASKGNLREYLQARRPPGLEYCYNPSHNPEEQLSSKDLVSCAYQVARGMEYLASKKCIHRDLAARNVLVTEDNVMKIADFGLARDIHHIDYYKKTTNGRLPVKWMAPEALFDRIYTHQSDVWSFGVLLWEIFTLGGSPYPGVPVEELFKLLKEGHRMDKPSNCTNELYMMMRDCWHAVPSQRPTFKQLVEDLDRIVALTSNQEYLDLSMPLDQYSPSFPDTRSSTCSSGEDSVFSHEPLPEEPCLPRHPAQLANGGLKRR
Description: Inhibition of FGFR1 (unknown origin) at 100 nM incubated for 15 mins in presence of ATP relative to control
Data set [2] has as its target T1, Fibroblast growth factor receptor 1. The note with it: dose 10.0 nM.
Target sequence in this assay (P11362 22-822 limits assumed): as above
Description: Inhibition of FGFR1 (unknown origin) at 10 nM incubated for 15 mins in presence of ATP relative to control
Data set [3] can be described thus: Antiproliferative activity against human L02 cells assessed as inhibition of cell proliferation incubated for 72 hrs by MTT assay. It counts as toxicity, cell-based. Background: Tetrazolium dyes change colour on reduction, which living cells bring about.
The subject of data set [4] is Hep 3B2. The experiment in a line: Induction of apoptosis in human Hep3B cells assessed as late apoptotic cells at 0.5 uM incubated for 48 hrs by annexin V-FITC/propidium iodide staining based flow cytometry analysis (reference value: 5.20%). It counts as functional. In general terms: Flow cytometry measures light scatter and fluorescence of single cells or particles in a stream.

Data set [5] concerns Huh-7. Description: Induction of apoptosis in human Huh-7 cells assessed as early apoptotic cells at 0.5 uM incubated for 48 hrs by annexin V-FITC/propidium iodide staining based flow cytometry analysis (reference value: 4.59%). The format is functional.
The test system of data set [6] is Huh-7. Description: Induction of apoptosis in human Huh-7 cells assessed as late apoptotic cells at 0.5 uM incubated for 48 hrs by annexin V-FITC/propidium iodide staining based flow cytometry analysis (reference value: 5.20%). The format is functional.
Data set [7] concerns Huh-7. The experiment in a line: Induction of apoptosis in human Huh-7 cells assessed as viable cells at 0.5 uM incubated for 48 hrs by annexin V-FITC/propidium iodide staining based flow cytometry analysis (reference value: 84.91%). Particulars: read-out: Activity. It counts as functional.
The test system of data set [8] is Hep 3B2. Description: Induction of apoptosis in human Hep3B cells assessed as viable cells at 0.5 uM incubated for 48 hrs by annexin V-FITC/propidium iodide staining based flow cytometry analysis (reference value: 84.91%). It counts as functional. The note with it: read-out: Activity.
For data set [9], the system named is Hep 3B2. The experiment in a line: Induction of apoptosis in human Hep3B cells assessed as necrotic cells at 0.5 uM incubated for 48 hrs by annexin V-FITC/propidium iodide staining based flow cytometry analysis (reference value: 5.20%). The format is functional.
In data set [10] the test system is Hep 3B2. Description: Induction of apoptosis in human Hep3B cells assessed as early apoptotic cells at 0.5 uM incubated for 48 hrs by annexin V-FITC/propidium iodide staining based flow cytometry analysis (reference value: 4.69%). It counts as functional.
Data set [11] concerns Huh-7. The experiment in a line: Induction of apoptosis in human Huh-7 cells assessed as necrotic cells at 0.5 uM incubated for 48 hrs by annexin V-FITC/propidium iodide staining based flow cytometry analysis (reference value: 5.20%). The format is functional.
Data set [12] has as its target Fibroblast growth factor receptor 4 (Homo sapiens) (UniProt P22455). Particulars: dose 10.0 nM.
Description: Inhibition of FGFR4 (unknown origin) at 10 nM incubated for 15 mins in presence of ATP relative to control
The target is the same in data set [13]. The note with it: dose 100.0 nM.
Description: Inhibition of FGFR4 (unknown origin) at 100 nM incubated for 15 mins in presence of ATP relative to control
Another data set deals with MDA-MB-231. Description: cells. Particulars: Homo sapiens, MDA-MB-231, 72 h.
The subject of data set [14] is Huh-7. Description: cells. The note with it: Homo sapiens, Huh-7, 72 h.
Description: Antiproliferative activity against human Huh-7 cells assessed as inhibition of cell proliferation incubated for 72 hrs by MTT assay
For data set [15], the system named is Hep 3B2. The experiment in a line: cells. Particulars: Homo sapiens, Hep3B, 72 h.
Description: Antiproliferative activity against human Hep3B cells assessed as inhibition of cell proliferation incubated for 72 hrs by MTT assay
Data set [16] addresses T1, Fibroblast growth factor receptor 1. Description: Inhibition of FGFR1 (unknown origin) incubated for 15 mins in presence of ATP.
Target sequence in this assay (P11362 whole entry): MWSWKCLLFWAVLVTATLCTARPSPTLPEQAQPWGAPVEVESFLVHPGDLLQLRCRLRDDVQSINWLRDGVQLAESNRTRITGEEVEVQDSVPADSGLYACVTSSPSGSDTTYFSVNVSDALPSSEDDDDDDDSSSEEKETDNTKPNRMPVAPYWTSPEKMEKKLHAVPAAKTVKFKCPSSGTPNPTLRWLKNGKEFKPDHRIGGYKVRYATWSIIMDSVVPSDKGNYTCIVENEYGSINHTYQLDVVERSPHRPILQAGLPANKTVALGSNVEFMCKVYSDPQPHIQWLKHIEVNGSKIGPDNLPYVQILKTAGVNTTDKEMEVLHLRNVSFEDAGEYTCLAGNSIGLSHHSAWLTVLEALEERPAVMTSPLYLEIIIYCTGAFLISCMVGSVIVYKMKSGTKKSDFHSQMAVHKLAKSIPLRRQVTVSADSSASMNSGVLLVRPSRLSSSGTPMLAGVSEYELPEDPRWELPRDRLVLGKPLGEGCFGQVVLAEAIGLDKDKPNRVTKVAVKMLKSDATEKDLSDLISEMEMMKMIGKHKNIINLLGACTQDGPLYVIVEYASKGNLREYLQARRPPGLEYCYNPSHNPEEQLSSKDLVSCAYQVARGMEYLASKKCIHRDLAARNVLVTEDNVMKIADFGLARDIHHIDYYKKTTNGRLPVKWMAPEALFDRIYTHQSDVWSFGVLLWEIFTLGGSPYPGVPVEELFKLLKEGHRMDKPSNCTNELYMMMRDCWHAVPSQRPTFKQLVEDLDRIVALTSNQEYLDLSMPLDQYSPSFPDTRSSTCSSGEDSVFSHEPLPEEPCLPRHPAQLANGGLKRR
Data set [17] can be described thus: GSH reactivity in potassium phosphate buffer at pH 7.4 assessed as half life at 1 uM measured at 2 to 1440 mins by LC-MS/MS analysis. It counts as physicochemical. The note with it: potassium phosphate buffer with GSH, time 2-1440 min.
Data set [18] has as its system Huh-7. Description: Antitumor activity against human Huh-7 cells xenografted in nude mouse assessed as tumor growth inhibition at 25 mg/kg, ip administered for 15 days. Particulars: Huh-7, 360 h, time 15 day, read-out: TGI. It counts as functional.

Activity calls are given as the source filed them.

Chain of Fibroblast growth factor receptor 4 (Homo sapiens) (P22455 22-802 limits assumed): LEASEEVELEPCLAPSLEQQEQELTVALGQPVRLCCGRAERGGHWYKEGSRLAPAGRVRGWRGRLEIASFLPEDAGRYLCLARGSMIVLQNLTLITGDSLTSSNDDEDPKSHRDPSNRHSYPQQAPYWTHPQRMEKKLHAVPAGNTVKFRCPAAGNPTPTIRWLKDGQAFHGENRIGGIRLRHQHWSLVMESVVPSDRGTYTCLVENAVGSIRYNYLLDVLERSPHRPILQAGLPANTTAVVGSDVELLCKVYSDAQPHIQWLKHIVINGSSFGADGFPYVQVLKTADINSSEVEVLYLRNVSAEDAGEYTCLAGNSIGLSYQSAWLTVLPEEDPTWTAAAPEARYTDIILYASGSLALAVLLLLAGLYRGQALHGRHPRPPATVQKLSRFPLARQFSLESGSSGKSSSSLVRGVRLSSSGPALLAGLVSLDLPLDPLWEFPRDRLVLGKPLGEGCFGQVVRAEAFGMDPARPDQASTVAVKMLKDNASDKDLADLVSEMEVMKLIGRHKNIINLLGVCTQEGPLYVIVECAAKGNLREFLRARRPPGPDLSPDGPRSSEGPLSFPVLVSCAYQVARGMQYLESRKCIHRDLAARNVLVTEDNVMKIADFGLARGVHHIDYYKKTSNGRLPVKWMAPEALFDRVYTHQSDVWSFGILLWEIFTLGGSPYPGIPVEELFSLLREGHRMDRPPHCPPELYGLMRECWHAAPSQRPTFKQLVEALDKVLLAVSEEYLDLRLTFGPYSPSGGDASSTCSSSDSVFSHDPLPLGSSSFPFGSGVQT
Description for MDA-MB-231: Antiproliferative activity against human MDA-MB-231 cells assessed as inhibition of cell proliferation incubated for 72 hrs by MTT assay

Turning to `Cc1ccc(C(=O)Nc2ccc(CN3CCN(C)CC3)c(C(F)(F)F)c2)cc1C#Cc1cnc(Nc2c(C)cccc2NC(=O)CCl)nc1`, the inhibition (usually how much of the control response was suppressed) in data set [1] was “inactive”. The inhibition in [2] is 0.2%.

Turning to `Cc1ccc(C(=O)Nc2ccc(CN3CCN(C)CC3)c(C(F)(F)F)c2)cc1C#Cc1cnc2cccnn12` [PONATINIB], the IC50 – broadly, the concentration that inhibits the measured activity by half – at 72 h in [3] is 180 nM. For the same compound, the Activity in the data set on Hep 3B2 [4] is reported as 20.3%; in the data set on Huh-7 [5], 2.74%; in the data set with Huh-7 [6] it was 18.5%; in the data set with Hep 3B2 [9] it was 6.56%; in the data set with Hep 3B2 [10], 5.14%; in the data set on Huh-7 [11], 3.28%. Also, the viability at 0.5 µM with Huh-7 [7] came out at 75.5%; in the data set with Hep 3B2 [8], 68%.

For the compound `Cc1ccc(C(=O)Nc2ccc(C(=O)N3CCN(C)CC3)c(C)c2)cc1C#Cc1cnc(Nc2c(C)cccc2NC(=O)/C=C/CN(C)C)nc1`, the inhibition result in data set [12], in [1] and in [13] was “inactive” each time. The same compound gave an inhibition in [2] of 0.6%.

In the case of `C=CC(=O)Nc1cccc(C)c1Nc1ncc(C#Cc2cc(C(=O)Nc3ccc(CN4CCN(C)CC4)c(C(F)(F)F)c3)ccc2C)cn1`, the IC50 at 72 h in data set [3] is greater than 10000 nM. In addition, the IC50 with MDA-MB-231 is 4330 nM; in the data set on Huh-7 [14], 1630 nM; in the data set on Hep 3B2 [15], 430 nM.

As for `C=CC(=O)Nc1cccc(C)c1Nc1ncc(C#Cc2ccc(C)c(C(=O)Nc3ccc(CN4CCN(C)CC4)c(C(F)(F)F)c3)c2)cn1`, the inhibition entry in [1] was “inactive”. Besides, the inhibition in data set [2] is 0.3%.

Consider `C=CC(=O)Nc1cccc(Cl)c1Nc1ncc(C#Cc2cc(C(=O)Nc3ccc(CN4CCN(C)CC4)c(C(F)(F)F)c3)ccc2C)cn1`, for which the IC50 at 72 h in [3] is greater than 10000 nM. Further, the IC50 was greater than 500 nM in data set [16], 4010 nM with MDA-MB-231, 410 nM in the data set with Huh-7 [14] and 870 nM with Hep 3B2 [15].

As to `C=CC(=O)Nc1cccc(C)c1Nc1ncc2cc(-c3c(Cl)c(OC)cc(OC)c3Cl)ccc2n1`, the IC50 at 72 h in data set [3] was greater than 10000 nM. The IC50 in [16] stood at 559 nM; in the data set with MDA-MB-231, 4260 nM; with Huh-7 [14], 490 nM; in the data set with Hep 3B2 [15], 810 nM. Also, in [17], the half-life (as a rule, the time needed for the level to fall by half in the phase considered) at 1 µM is 60.1 min. Also, the inhibition in vivo at 25 mg/kg with Huh-7 [18] was determined as 61.8%.

As for `CN(C)C/C=C/C(=O)Nc1cc2c(Nc3ccc(F)c(Cl)c3)ncnc2cc1O[C@H]1CCOC1` [AFATINIB], in [17], the half-life at 1 µM worked out at 30.1 min.

`Cc1ccc(C(=O)Nc2ccc(C(=O)N3CCN(C)CC3)c(C(F)(F)F)c2)cc1C#Cc1cnc(Nc2c(C)cccc2NC(=O)/C=C/CN(C)C)nc1`: the inhibition entry in data set [12], in data set [1] and in [13] was “inactive” in each case. This compound showed an inhibition in data set [2] of 2.2%.

Take `C=CC(=O)Nc1cccc(C)c1Nc1ccc(C#Cc2cc(C(=O)Nc3ccc(CN4CCN(C)CC4)c(C(F)(F)F)c3)ccc2C)cn1`: the IC50 at 72 h in data set [3] is greater than 10000 nM. For the same compound, the IC50 is greater than 500 nM in data set [16], 3530 nM in the data set on MDA-MB-231, 520 nM in the data set with Huh-7 [14] and 660 nM with Hep 3B2 [15].

In the case of `CC(C)=CC(=O)Nc1cccc(C)c1Nc1ncc(C#Cc2cccc(C(=O)Nc3ccc(CN4CCN(C)CC4)c(C(F)(F)F)c3)c2)cn1`, in data set [13], the inhibition is less than 10%.

Turning to `C=CC(=O)Nc1ccccc1Nc1ncc(C#Cc2cc(C(=O)Nc3ccc(CN4CCN(C)CC4)c(C(F)(F)F)c3)ccc2C)cn1`, the IC50 at 72 h in data set [3] was greater than 10000 nM. Further, the IC50 was found to be 2240 nM in the data set on MDA-MB-231, 680 nM with Huh-7 [14] and 770 nM in the data set on Hep 3B2 [15].

Regarding `C/C=C/C(=O)Nc1cccc(C)c1Nc1ncc(C#Cc2cc(C(=O)Nc3ccc(CN4CCN(C)CC4)c(C(F)(F)F)c3)ccc2C)cn1`, the inhibition result in data set [1] and in data set [2] was “inactive” each time.

For the compound `Cc1ccc(C(=O)Nc2ccc(CN3CCN(C)CC3)c(C(F)(F)F)c2)cc1C#Cc1cnc(Nc2c(C)cccc2NC(=O)/C=C/CN(C)C)nc1`, in [3], the IC50 at 72 h is greater than 10000 nM. The IC50 came out at 863 nM in [16], 1250 nM with MDA-MB-231, 1620 nM in the data set with Huh-7 [14] and 920 nM in the data set with Hep 3B2 [15].
